Test systems include 786-0 renal; A549 NSCLC; HCT-116 colon; K-562 leukemia; NCI/ADR-RES ovarian; PC-3 prostate; SF-295 CNS; SK-MEL-28 melanoma; SNB-75 CNS; UO-31 renal.
What all share (experiment): NCI-60 cell line screen, 48 h

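Dose response: 5 concentrations. Exposure: 48 h. Format: 96-well plates. Endpoint: linear interpolation; highest concentration if not reached. At the GI50, growth is halved. TGI denotes the concentration required for complete inhibition of growth.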 A value given as a limit tells only on which side of the number the result lay.

Regarding `O=C1OC(c2ccc(O)c(-c3ccccc3)c2)(c2ccc(O)c(-c3ccccc3)c2)c2c(Cl)c(Cl)c(Cl)c(Cl)c21`, the TGI with 786-0 renal, in the assay on A549 NSCLC, in the assay with HCT-116 colon, with K-562 leukemia, in the assay on NCI/ADR-RES ovarian and in the assay on PC-3 prostate was more than 100 µM each time. In addition, the TGI in the assay on SF-295 CNS, in the assay on SK-MEL-28 melanoma, with SNB-75 CNS and with UO-31 renal was more than 100 µM throughout.

Turning to `CC(=O)OC1COC(S[As](C)C)C(OC(C)=O)C1OC(C)=O` (centres undefined), the GI50 with 786-0 renal was 0.0811 µM; in the assay with A549 NSCLC, 3.51 µM; with HCT-116 colon, 0.17 µM; in the assay on K-562 leukemia, 0.0176 µM; with NCI/ADR-RES ovarian it was 0.155 µM; in the assay on PC-3 prostate, 0.164 µM. The GI50 with SF-295 CNS was 2.19 µM; in the assay on SK-MEL-28 melanoma, 0.666 µM; with SNB-75 CNS, 3.49 µM; in the assay on UO-31 renal it was 0.102 µM. Moreover, the TGI in the assay on 786-0 renal is 1.12 µM; in the assay with A549 NSCLC, more than 32.4 µM; with HCT-116 colon, 2.04 µM; in the assay with K-562 leukemia, 0.0913 µM; in the assay with NCI/ADR-RES ovarian, 0.974 µM; in the assay on PC-3 prostate it was 2.04 µM. Moreover, the TGI with SF-295 CNS worked out at 8.31 µM; in the assay on SK-MEL-28 melanoma it was 8.89 µM; in the assay on SNB-75 CNS, 21.7 µM; in the assay on UO-31 renal, 0.805 µM.

Turning to `CCC[C@H](N[C@@H]1CCc2cc(F)cc(F)c2C1)C(=O)Nc1cn(C(C)(C)CNCC(C)(C)C)cn1`, the GI50 is 13.5 µM in the assay on 786-0 renal; 23.2 µM in the assay on A549 NSCLC; 5.31 µM in the assay with HCT-116 colon; 8.33 µM in the assay with K-562 leukemia; 15.3 µM in the assay with NCI/ADR-RES ovarian; 7.63 µM in the assay with PC-3 prostate. Also, the GI50 in the assay on SF-295 CNS was 15.4 µM; in the assay with SK-MEL-28 melanoma, 15.1 µM; in the assay on SNB-75 CNS, 3.68 µM; with UO-31 renal, 6.33 µM. Moreover, the TGI in the assay with 786-0 renal is 54.2 µM; in the assay with A549 NSCLC it was more than 100 µM; with HCT-116 colon, 20.2 µM; in the assay on K-562 leukemia it was more than 89.2 µM; in the assay on NCI/ADR-RES ovarian, more than 81 µM; in the assay with PC-3 prostate it was 79.2 µM. Also, the TGI stood at 42.5 µM in the assay with SF-295 CNS, 33.9 µM in the assay on SK-MEL-28 melanoma, 64.8 µM in the assay with SNB-75 CNS and 22.1 µM with UO-31 renal.

`CCOC(=O)CC1(O)C=CC(=O)C=C1`: the GI50 is 0.596 µg/mL in the assay on 786-0 renal; 4.95 µg/mL in the assay on A549 NSCLC; 2.47 µg/mL in the assay with HCT-116 colon; 1.37 µg/mL in the assay with K-562 leukemia; 1.28 µg/mL with NCI/ADR-RES ovarian; 0.348 µg/mL in the assay on PC-3 prostate. Further, the GI50 is 2.55 µg/mL with SF-295 CNS, 1.04 µg/mL in the assay on SK-MEL-28 melanoma, 1.95 µg/mL with SNB-75 CNS and 2.41 µg/mL in the assay with UO-31 renal. The TGI was 2 µg/mL in the assay with 786-0 renal; 16.4 µg/mL in the assay on A549 NSCLC; 5.44 µg/mL in the assay with HCT-116 colon; 10.8 µg/mL with K-562 leukemia; 6.57 µg/mL in the assay on NCI/ADR-RES ovarian; 0.921 µg/mL with PC-3 prostate. Besides, the TGI was 5.07 µg/mL in the assay on SF-295 CNS, 2.89 µg/mL in the assay on SK-MEL-28 melanoma, 4.38 µg/mL with SNB-75 CNS and 4.44 µg/mL with UO-31 renal.

As to `CCc1c2c(nc3cc4c(cc13)OCO4)-c1cc3c(c(=O)n1C2)COC(=O)[C@@]3(CC)OC(=O)CN`, the GI50 with 786-0 renal was less than 0.01 µM; in the assay with A549 NSCLC it was less than 0.01 µM; in the assay with HCT-116 colon, 0.0214 µM; in the assay on K-562 leukemia it was less than 0.01 µM; in the assay with NCI/ADR-RES ovarian, less than 0.01 µM; in the assay on PC-3 prostate, less than 0.01 µM. In addition, the GI50 is less than 0.01 µM in the assay with SF-295 CNS, 0.101 µM in the assay with SK-MEL-28 melanoma, less than 0.01 µM in the assay with SNB-75 CNS and less than 0.01 µM in the assay on UO-31 renal. Moreover, the TGI with 786-0 renal is less than 0.0127 µM; with A549 NSCLC, 0.149 µM; in the assay with HCT-116 colon it was 0.0666 µM; in the assay with K-562 leukemia it was 5.65 µM; in the assay with NCI/ADR-RES ovarian, less than 0.0104 µM; in the assay on PC-3 prostate it was more than 35.5 µM. Also, the TGI in the assay on SF-295 CNS is less than 0.0166 µM; in the assay on SNB-75 CNS it was less than 0.045 µM; with UO-31 renal it was 0.0794 µM.

With `O=C(O)C1C2CC3C(OC(=O)C31)C2Br` (centres undefined), the TGI in the assay on 786-0 renal is more than 100 µM; in the assay on A549 NSCLC it was more than 100 µM; with HCT-116 colon, more than 100 µM; in the assay on K-562 leukemia it was more than 88.9 µM; with NCI/ADR-RES ovarian it was more than 100 µM; in the assay on PC-3 prostate, more than 100 µM. For the same compound, the TGI in the assay on SF-295 CNS, with SK-MEL-28 melanoma, in the assay on SNB-75 CNS and in the assay with UO-31 renal was more than 100 µM throughout.

Take `COc1cc(OC)c2c(=O)c(O)c(-c3ccc(OC)c(OC)c3)oc2c1`: the TGI in the assay with 786-0 renal was more than 100 µM; in the assay on A549 NSCLC, more than 100 µM; in the assay with HCT-116 colon, more than 100 µM; in the assay on K-562 leukemia, more than 100 µM; in the assay on NCI/ADR-RES ovarian, 17.5 µM; with PC-3 prostate, more than 100 µM. The TGI was 38.1 µM in the assay on SF-295 CNS, more than 31.6 µM with SK-MEL-28 melanoma, more than 100 µM with SNB-75 CNS and more than 100 µM in the assay with UO-31 renal.

As for `CC(C)(C)c1ccc([I+]c2ccc(C(C)(C)C)cc2)cc1`, the GI50 in the assay on 786-0 renal was 1.69 µM; with A549 NSCLC, 2.43 µM; in the assay on HCT-116 colon it was 1.25 µM; with K-562 leukemia, 0.55 µM; in the assay on NCI/ADR-RES ovarian it was 21.5 µM; in the assay with PC-3 prostate, 1.17 µM. The GI50 is 2.22 µM in the assay with SF-295 CNS, 1.11 µM in the assay on SK-MEL-28 melanoma, 1.44 µM with SNB-75 CNS and 3.62 µM in the assay on UO-31 renal. The TGI in the assay on 786-0 renal was found to be 3.77 µM; in the assay on A549 NSCLC, 6.65 µM; in the assay with HCT-116 colon it was 4 µM; in the assay on K-562 leukemia, 2.46 µM; in the assay on NCI/ADR-RES ovarian, 89.5 µM; in the assay with PC-3 prostate, 6.05 µM. In addition, the TGI with SF-295 CNS stood at 5.28 µM; in the assay on SK-MEL-28 melanoma, 3.14 µM; in the assay on SNB-75 CNS it was 6.1 µM; in the assay with UO-31 renal, 14.8 µM.

Turning to `CN1CCN(c2ccc3nc(-c4cc(C(C)(C)C)c(O)c(C(C)(C)C)c4)[nH]c3c2)CC1`, the GI50 in the assay with 786-0 renal was 1.82 µM; in the assay on A549 NSCLC, 3.26 µM; in the assay with HCT-116 colon it was 1.85 µM; in the assay with K-562 leukemia it was 1.94 µM; with NCI/ADR-RES ovarian it was 5.48 µM; in the assay with PC-3 prostate, 1.92 µM. Further, the GI50 in the assay on SF-295 CNS was 1.83 µM; in the assay on SK-MEL-28 melanoma it was 1.91 µM; with SNB-75 CNS, 1.42 µM; in the assay on UO-31 renal, 1.7 µM. For the same compound, the TGI in the assay with 786-0 renal is 3.5 µM; with A549 NSCLC it was 11.5 µM; in the assay on HCT-116 colon it was 4.06 µM; in the assay with K-562 leukemia it was 4.97 µM; in the assay on NCI/ADR-RES ovarian, 20 µM; in the assay with PC-3 prostate it was 4.17 µM. Moreover, the TGI with SF-295 CNS was found to be 3.66 µM; in the assay on SK-MEL-28 melanoma, 3.4 µM; with SNB-75 CNS, 3.65 µM; with UO-31 renal it was 3.08 µM.
